Converted amounts (≈) assume the structure as drawn.
How the values were obtained:
physchem [1] = conditions: octan-1-ol/water
in vitro [2] = conditions: hepatocytes
in vitro [3] = conditions: human
physchem [4] = conditions: pH 7.4 buffer

Row | SMILES | logD (physchem [1]; pH 7.4, LogD7.4) | hepatocyte CLint (in vitro [2]) | microsomal CLint (in vitro [3]; liver microsomes) | microsomal CLint (in vitro [3]; microsomes) | solubility thermodynamic (physchem [4]) | logD (physchem [1]; pH 7.4)
1 | c1csc(Cn2nnnc2CN2CCN(c3nc4ccccc4s3)CC2)c1 | 3.65 | > 150 µL/min/1e6 cells | 99 µL/min/mg | – | – | –
2 | N#Cc1cccc(NCC(=O)Nc2c(Cl)ccc3nc(N4CC[C@@H](O)C4)ccc23)c1 | 2.39 | 8 µL/min/1e6 cells | – | 30 µL/min/mg | – | –
3 | Cc1ccc(S(=O)(=O)Nc2c(C(=O)N(C)C3CCCCC3)c(C)nn2-c2ccccc2)cc1 | 1.69 | 21 µL/min/1e6 cells | 53 µL/min/mg | – | – | –
4 | Cn1c(=O)c(Oc2ccc(F)cc2F)cc2cnc(NC(CCO)CCO)nc21 [PAMAPIMOD] | 1.5 | < 3 µL/min/1e6 cells | – | 4.57 µL/min/mg | – | –
5 | CN(CCNC[C@H](O)c1ccc(O)c2[nH]c(=O)sc12)C(=O)CCOCCc1ccccc1 | 1.21 | 43 µL/min/1e6 cells | 35 µL/min/mg | – | – | –
6 | COCC1=C(C(=O)OC(C)OC(=O)OC(C)C)N2C(=O)[C@@H](NC(=O)/C(=N\OC)c3csc(N)n3)[C@H]2SC1 (stereo partly drawn) [CEFPODOXIME PROXETIL] | 1.7 | 115 µL/min/1e6 cells | > 150 µL/min/mg | – | – | –
7 | Oc1nc2c(O)ccc(CCNCCCCCCOCCc3ccccc3)c2s1 | 2.21 | 88 µL/min/1e6 cells | – | 29 µL/min/mg | – | –
8 | O=C(Nc1cccc(CCO)c1)c1cc2cc(Cl)ccc2[nH]1 | 3.83 | > 150 µL/min/1e6 cells | 10 µL/min/mg | – | – | –
9 | O=c1[nH]c2c(O)ccc([C@@H](O)CNCCSCCCNCCc3cccc(C(F)(F)F)c3)c2s1 | 1.21 | 6 µL/min/1e6 cells | 13 µL/min/mg | – | – | –
10 | O=C(O)[C@H](Cc1ccccc1)N1CCC(CN2CCC(Oc3ccc(CO)c(Cl)c3)CC2)CC1 | 0.8 | 28 µL/min/1e6 cells | < 3 µL/min/mg | – | – | –
11 | Cc1cc(C)nc(SCC(=O)Nc2cc(C)on2)n1 | 1.52 | 141 µL/min/1e6 cells | > 150 µL/min/mg | – | – | –
12 | O=C(c1csc2c1CCCC2)N1CCCCC1 | 3.2 | > 150 µL/min/1e6 cells | – | 117 µL/min/mg | – | –
13 | O=c1[nH]c2c(O)ccc([C@@H](O)CNCCc3cccc(CNCc4ccccc4Cl)c3)c2s1 | 1.85 | 60 µL/min/1e6 cells | 47 µL/min/mg | – | – | –
14 | CCn1c(C)c(C(=O)O)c(-c2cccc(N3CCN(c4ccc(NS(=O)(=O)c5ccc(N[C@H](CCN6CCC(O)CC6)CSc6ccccc6)c(S(=O)(=O)C(F)(F)F)c5)cc4)CC3)c2)c1-c1ccc(Cl)cc1 | 4.2 | 17.4 µL/min/1e6 cells | 15.1 µL/min/mg | – | – | –
15 | CCC(CC)NC(=O)c1cnn(-c2ccccc2)c1NS(=O)(=O)c1ccc(-c2cnco2)cc1 | 0.8 | 52 µL/min/1e6 cells | 27 µL/min/mg | – | – | –
16 | O=C(NCC12CC3CC(CC(C3)C1)C2)c1ccnc(NCC2CCNCC2)c1Cl | 0.6 | 4 µL/min/1e6 cells | – | 68 µL/min/mg | – | –

Row | SMILES | logD (physchem [1]; pH 7.4, LogD7.4) | hepatocyte CLint (in vitro [2]) | microsomal CLint (in vitro [3]; liver microsomes) | microsomal CLint (in vitro [3]; microsomes) | solubility thermodynamic (physchem [4]) | logD (physchem [1]; pH 7.4)
17 | CNC(=O)c1nc(-c2ccc(Cl)c(S(=O)(=O)Nc3cccc(F)c3F)c2)cnc1N | 2.8 | 19.9 µL/min/1e6 cells | 51.3 µL/min/mg | – | – | –
18 | COc1ccc2nc(C)cc(OCC(=O)Nc3ccccc3OC)c2c1 | 3.9 | > 150 µL/min/1e6 cells | – | 138 µL/min/mg | – | –
19 | COc1cc(-c2ccc(Nc3ccccc3C(=O)O)c(OC)c2)ccc1Nc1ccccc1C(=O)O | 1.8 | 31.6 µL/min/1e6 cells | 6.61 µL/min/mg | – | – | –
20 | Cc1nc2ncnn2c(O)c1CCOC(=O)c1ccccc1F | 0.99 | 129 µL/min/1e6 cells | > 150 µL/min/mg | – | – | –
21 | O=c1[nH]c2c(O)ccc([C@@H](O)CNCCc3ccccc3CNCCc3ccccc3F)c2s1 | 1.58 | 107 µL/min/1e6 cells | – | 27.5 µL/min/mg | – | –
22 | Nc1c(C(=O)c2cccc(OC[C@@H](O)CO)c2)cnn1-c1ccc(F)cc1 [RO-3201195] | 1.91 | < 3 µL/min/1e6 cells | – | < 3 µL/min/mg | – | –
23 | CCC(CC)NC(=O)c1cnn(C)c1NS(=O)(=O)c1ccc(C)cc1 | 0.36 | 27 µL/min/1e6 cells | 13 µL/min/mg | – | – | –
24 | Cc1cc2cc(C)c3nnc(SCC(=O)N4CCN(C(=O)c5ccco5)CC4)n3c2cc1C | 2.8 | 57.5 µL/min/1e6 cells | > 150 µL/min/mg | – | – | –
25 | O=C(Nc1c[nH]nc1-c1nc2cc(CN3CCOCC3)ccc2[nH]1)NC1CC1 [AT-9283] | 2.3 | < 3 µL/min/1e6 cells | 8.32 µL/min/mg | – | – | –
26 | c1ccc(Nc2[nH]nnc2-c2ccccc2)cc1 | 3.37 | 111 µL/min/1e6 cells | 119 µL/min/mg | – | – | –
27 | CCOc1ccc(CCNCCCSCCNC[C@H](O)c2ccc(O)c3[nH]c(=O)sc23)cc1 | 0.41 | 8 µL/min/1e6 cells | 75 µL/min/mg | – | – | –
28 | O=C(O)COc1ccc(C(=O)c2cccs2)c(Cl)c1Cl | -0.84 | 61 µL/min/1e6 cells | – | 82 µL/min/mg | – | –
29 | CNS(=O)(=O)Cc1ccc2[nH]cc(CCN(C)C)c2c1 | -0.96 | 8 µL/min/1e6 cells | < 3 µL/min/mg | – | – | –
30 | Cc1cc(CCCOc2c(C)cc(-c3noc(C(F)(F)F)n3)cc2C)on1 [PLECONARIL] | 3.63 | 13.5 µL/min/1e6 cells | 14.4 µL/min/mg | – | – | –
31 | Cc1ccccc1NC(=O)CCS(=O)(=O)c1ccc(Br)s1 | 2.7 | > 150 µL/min/1e6 cells | 46.8 µL/min/mg | – | – | –

Results, then the compound that gave them:

Row | logD (physchem [1]; pH 7.4, LogD7.4) | hepatocyte CLint (in vitro [2]) | microsomal CLint (in vitro [3]; liver microsomes) | microsomal CLint (in vitro [3]; microsomes) | solubility thermodynamic (physchem [4]) | logD (physchem [1]; pH 7.4) | SMILES
32 | 0.65 | 56 µL/min/1e6 cells | 72 µL/min/mg | – | – | – | CCC(CC)NC(=O)c1cnn(-c2ccccc2Cl)c1NS(=O)(=O)c1ccc(C)cc1
33 | 1.13 | 24 µL/min/1e6 cells | 16 µL/min/mg | – | – | – | Cc1cccc2c(CCNCc3cccc(CCNC[C@H](O)c4ccc(O)c5[nH]c(=O)sc45)c3)c[nH]c12
34 | 2.4 | 6.31 µL/min/1e6 cells | – | 19.9 µL/min/mg | – | – | COc1c(Nc2ccc(S(C)(=O)=O)nc2C)ncnc1OC1CCN(C(=O)OC(C)C)CC1 [ADP-597]
35 | 0.47 | 69.2 µL/min/1e6 cells | 15.5 µL/min/mg | – | – | – | Cc1oc(=O)oc1CN1CCN(c2cc3c(cc2F)c(=O)c(C(=O)O)c2n3C(C)S2)CC1 (stereo not drawn) [PRULIFLOXACIN]
36 | – | > 150 µL/min/1e6 cells | > 150 µL/min/mg | – | 372 µM (≈ 183 µg/mL) | – | Cc1ccc(CCOCCNS(=O)(=O)CCCNCCc2ccc(O)c3nc(O)sc23)cc1
37 | 3.3 | 5.5 µL/min/1e6 cells | 33.1 µL/min/mg | – | – | – | O=C(Nc1ncc(F)s1)C(CC1CCOCC1)c1ccc(S(=O)(=O)C2CC2)cc1 (stereo not drawn)
38 | 2.18 | 27.5 µL/min/1e6 cells | – | 7.24 µL/min/mg | – | – | COc1cc(Nc2nc3c(cc2F)ncn3[C@@H](CO)c2ccc(F)cn2)n[nH]1
39 | – | 148 µL/min/1e6 cells | – | > 150 µL/min/mg | – | 3.8 | CCOC(=O)c1c(-c2ccccc2)nc2cc(C)ccn12
40 | 2.8 | 4.17 µL/min/1e6 cells | 19.5 µL/min/mg | – | – | – | O=C1NC(=O)/C(=C/c2ccc3c(c2)OC(F)(F)O3)S1
41 | 1.11 | 19 µL/min/1e6 cells | 9 µL/min/mg | – | – | – | O=c1[nH]c2c(O)ccc([C@@H](O)CNCCc3cccc(CNCCCc4ccccc4)c3)c2s1
42 | 1.1 | 17.4 µL/min/1e6 cells | 4.47 µL/min/mg | – | – | – | O=C(Nc1cccc(-c2nnn[nH]2)c1)c1cc(C(F)(F)F)cc2[nH]cnc12
43 | 3.2 | 120 µL/min/1e6 cells | > 150 µL/min/mg | – | – | – | COc1ccc2nc(C)cc(OCC(=O)NCc3ccccc3)c2c1
44 | 0.16 | 64.3 µL/min/1e6 cells | > 150 µL/min/mg | – | – | – | Cc1nc2ncnn2c(O)c1CCOC(=O)c1c(F)cccc1F
45 | 3.01 | > 150 µL/min/1e6 cells | 16.6 µL/min/mg | – | – | – | CC(=O)c1ncccc1NC(=O)[C@H]1CC[C@H](N2C(=O)[C@@H]3[C@@H]4CC[C@@H](C4)[C@@H]3C2=O)CC1
46 | 2.46 | > 150 µL/min/1e6 cells | 103 µL/min/mg | – | – | – | CC1(C)[C@@H]2CC[C@@]1(CS(=O)(=O)N1CCN(c3ccc(C#N)cn3)CC1)C(=O)C2
47 | 2.48 | 26 µL/min/1e6 cells | > 150 µL/min/mg | – | – | – | COc1ccc(CC(=O)NC(NC(=NC#N)Nc2ccccc2C)C(C)(C)C)cc1OC (stereo not drawn)
48 | 0.2 | < 3 µL/min/1e6 cells | < 3 µL/min/mg | – | – | – | Cc1c2c(=O)n(-c3ccccc3Cl)[nH]c2cc(=O)n1Cc1ccccn1
49 | 0.3 | < 3 µL/min/1e6 cells | < 3 µL/min/mg | – | – | – | CCOc1nc2cccc(C(=O)O)c2n1Cc1ccc(-c2ccccc2-c2nnn[nH]2)cc1
50 | 1.86 | 23 µL/min/1e6 cells | – | 14 µL/min/mg | – | – | O=c1[nH]c2c(O)ccc([C@@H](O)CNCCOc3cccc(CNCCc4ccccc4F)c3)c2s1
51 | 1.79 | 46 µL/min/1e6 cells | < 3 µL/min/mg | – | – | – | Cc1nccn1CCC(C(N)=O)(c1ccccc1)c1ccccc1 [IMIDAFENACIN]
52 | 3.08 | 13 µL/min/1e6 cells | 15 µL/min/mg | – | – | – | O=C(NCC12CC3CC(CC(C3)C1)C2)c1c(Cl)ccc2nc(N3CCC[C@H](NCCc4nnn[nH]4)C3)ccc12
53 | 2.5 | > 150 µL/min/1e6 cells | – | > 150 µL/min/mg | – | – | COc1ccc(CNC(=O)CSc2nc3cccnc3s2)cc1
54 | – | 10.5 µL/min/1e6 cells | – | 42.7 µL/min/mg | – | -0.58 | COc1nc(N)nc2c1ncn2[C@@H]1O[C@H](CO)[C@@H](O)[C@H]1O
55 | 2.47 | 97.7 µL/min/1e6 cells | – | 4.9 µL/min/mg | – | – | O=C(O)CCc1ccc(OCc2cccc(Oc3ccccc3)c2)cc1
56 | 1.34 | 5 µL/min/1e6 cells | 59 µL/min/mg | – | – | – | Cc1ccc(S(=O)(=O)Nc2c(C(=O)NC3CCCCC3C)cnn2-c2ccccc2)cc1 (stereo not drawn)
57 | 0.2 | 3.63 µL/min/1e6 cells | 5.37 µL/min/mg | – | – | – | COc1ccc(Cc2c(N)n[nH]c2N)cc1
58 | 3.5 | 13.8 µL/min/1e6 cells | – | 64.6 µL/min/mg | – | – | COc1ccc(C(=O)NCc2cn(-c3cc(C)nc4ccc(OC)cc34)nn2)cc1
59 | 1.56 | 8.91 µL/min/1e6 cells | 8.51 µL/min/mg | – | – | – | N[C@@H]1CCCN(c2c(/C=C3\SC(=O)NC3=O)cccc2-c2ccncc2)C1
60 | 2.54 | > 150 µL/min/1e6 cells | – | 75 µL/min/mg | – | – | O=c1[nH]c2c(O)ccc([C@@H](O)CNCCSCCCOCCc3ccccc3)c2s1
61 | 1.3 | 14 µL/min/1e6 cells | – | 22 µL/min/mg | – | – | O=c1[nH]c2c(O)ccc([C@@H](O)CNCCc3ccc(CNCCc4ccccc4F)cc3)c2s1

Reference: ChEMBL document CHEMBL3301361, “Experimental in vitro DMPK and physicochemical data on a set of publicly disclosed compounds”
